This is an account of results in paper PMC5218480 (PLoS ONE, 2017).

The subject of the experiment is MV-4-11 cells. In words: Gene expression microarray analysis (Affymetrix PrimeView) and GSEA. The format is cell-based, human. The arrangement: RFU PODN (11730768_x_at) / Fold change /veh PODN (11730768_x_at) / RFU LINC00158 (11744669_a_at) / Fold change /veh LINC00158 (11744669_a_at) / RFU DUSP10 (11751237_a_at) / Fold change /veh DUSP10 (11751237_a_at) / RFU ID3 (11757404_x_at) / Fold change /veh ID3 (11757404_x_at) / RFU PLEKHG5 (11737974_s_at) / Fold change /veh PLEKHG5 (11737974_s_at) / RFU LRRC4B (11730491_at) / Fold change /veh LRRC4B (11730491_at) / RFU GIMAP4 (11747438_a_at) / Fold change /veh GIMAP4 (11747438_a_at) / RFU KRT8 (11758183_x_at) / Fold change /veh KRT8 (11758183_x_at) / RFU CNN1 (11734310_a_at) / Fold change /veh CNN1 (11734310_a_at) / RFU VPS37D (11726825_at) / Fold change /veh VPS37D (11726825_at) / RFU C10orf10 (11716522_x_at) / Fold change /veh C10orf10 (11716522_x_at) / RFU KIR2DL2 /// KIR2DL4 /// KIR2DL5A /// KIR2DL5B /// KIR2DS1 /// KIR2DS2 /// KIR2DS3 /// KIR2DS4 /// KIR3DL3 /// KIR3DL3 /// KIR3DS1 (11738374_at) / Fold change /veh KIR2DL2 /// KIR2DL4 /// KIR2DL5A /// KIR2DL5B /// KIR2DS1 /// KIR2DS2 /// KIR2DS3 /// KIR2DS4 /// KIR3DL3 /// KIR3DL3 /// KIR3DS1 (11738374_at) / RFU C1QL1 (11718748_at) / Fold change /veh C1QL1 (11718748_at) / RFU TMPRSS4 (11747572_a_at) / Fold change /veh TMPRSS4 (11747572_a_at) / RFU HAMP (11756126_x_at) / Fold change /veh HAMP (11756126_x_at) / RFU RNFT2 (11725882_a_at) / Fold change /veh RNFT2 (11725882_a_at) / RFU NR4A2 (11747474_a_at) / Fold change /veh NR4A2 (11747474_a_at) / RFU ABCC12 (11746883_a_at) / Fold change /veh ABCC12 (11746883_a_at) / RFU TMEM136 (11760407_x_at) / Fold change /veh TMEM136 (11760407_x_at) / RFU CLDN22 /// WWC2 (11732394_at) / Fold change /veh CLDN22 /// WWC2 (11732394_at) / RFU HLA-DPB1 (11760878_x_at) / Fold change /veh HLA-DPB1 (11760878_x_at) / RFU SPINT1 (11716480_a_at) / Fold change /veh SPINT1 (11716480_a_at) / RFU GAP43 (11754022_s_at) / Fold change /veh GAP43 (11754022_s_at) / RFU A4GNT (11735810_at) / Fold change /veh A4GNT (11735810_at) / RFU PRB3 (11715151_x_at) / Fold change /veh PRB3 (11715151_x_at) / RFU TUBB4B (11761932_at) / Fold change /veh TUBB4B (11761932_at) / RFU CAPN14 (11732068_a_at) / Fold change /veh CAPN14 (11732068_a_at) / RFU TMCC2 (11721928_a_at) / Fold change /veh TMCC2 (11721928_a_at) / RFU IRGQ (11745062_a_at) / Fold change /veh IRGQ (11745062_a_at) / RFU FAM174B (11720279_a_at) / Fold change /veh FAM174B (11720279_a_at) / RFU TMPRSS4 (11748680_a_at) / Fold change /veh TMPRSS4 (11748680_a_at) / RFU FAM212B (11763350_a_at) / Fold change /veh FAM212B (11763350_a_at) / RFU PLEKHG5 (11743358_a_at) / Fold change /veh PLEKHG5 (11743358_a_at) / RFU ZSCAN30 (11745921_a_at) / Fold change /veh ZSCAN30 (11745921_a_at) / RFU CMKLR1 (11741424_a_at) / Fold change /veh CMKLR1 (11741424_a_at) / RFU LOC101060620 /// MAPK8IP1 (11723275_at) / Fold change /veh LOC101060620 /// MAPK8IP1 (11723275_at) / RFU SPTSSB (11747773_x_at) / Fold change /veh SPTSSB (11747773_x_at) / RFU PRSS12 (11739890_at) / Fold change /veh PRSS12 (11739890_at) / RFU BIN1 (11741810_x_at) / Fold change /veh BIN1 (11741810_x_at) / RFU WNT11 (11732464_a_at) / Fold change /veh WNT11 (11732464_a_at) / RFU C10orf10 (11716521_a_at) / Fold change /veh C10orf10 (11716521_a_at) / RFU C5orf56 (11738089_at) / Fold change /veh C5orf56 (11738089_at) / RFU CYB561 (11721691_x_at) / Fold change /veh CYB561 (11721691_x_at) / RFU ANKRD19P (11752326_a_at) / Fold change /veh ANKRD19P (11752326_a_at) / RFU OR2T12 /// OR2T33 /// OR2T8 (11738714_s_at) / Fold change /veh OR2T12 /// OR2T33 /// OR2T8 (11738714_s_at) / RFU VCAN (11748164_a_at) / Fold change /veh VCAN (11748164_a_at) / RFU JSRP1 (11732532_at) / Fold change /veh JSRP1 (11732532_at) / RFU KRTAP10-11 (11738290_x_at) / Fold change /veh KRTAP10-11 (11738290_x_at) / RFU MYO3A (11730013_a_at) / Fold change /veh MYO3A (11730013_a_at) / RFU EBF3 (11725865_a_at) / Fold change /veh EBF3 (11725865_a_at) / RFU CAMK2N1 (11719241_x_at) / Fold change /veh CAMK2N1 (11719241_x_at) / RFU C5orf56 (11738088_a_at) / Fold change /veh C5orf56 (11738088_a_at) / RFU OLFML3 (11715873_a_at) / Fold change /veh OLFML3 (11715873_a_at) / RFU LOC100653217 /// NTM (11731650_a_at) / Fold change /veh LOC100653217 /// NTM (11731650_a_at) / RFU MAPK11 (11762145_a_at) / Fold change /veh MAPK11 (11762145_a_at) / RFU FIZ1 (11724087_x_at) / Fold change /veh FIZ1 (11724087_x_at) / RFU OASL (11726364_x_at) / Fold change /veh OASL (11726364_x_at) / RFU SOX15 (11748057_x_at) / Fold change /veh SOX15 (11748057_x_at) / RFU CD79A (11719716_a_at) / Fold change /veh CD79A (11719716_a_at) / RFU HIST1H1D (11736915_at) / Fold change /veh HIST1H1D (11736915_at) / RFU CASKIN2 (11723855_a_at) / Fold change /veh CASKIN2 (11723855_a_at) / RFU LOC730098 (11760151_x_at) / Fold change /veh LOC730098 (11760151_x_at) / RFU OR4N2 (11742367_at) / Fold change /veh OR4N2 (11742367_at) / RFU PRRT2 (11749266_a_at) / Fold change /veh PRRT2 (11749266_a_at) / RFU SNX32 (11753110_a_at) / Fold change /veh SNX32 (11753110_a_at) / RFU CDHR5 (11726645_a_at) / Fold change /veh CDHR5 (11726645_a_at) / RFU RCAN1 (11760418_a_at) / Fold change /veh RCAN1 (11760418_a_at) / RFU FAM167A (11723789_a_at) / Fold change /veh FAM167A (11723789_a_at) / RFU FAM26E (11764081_at) / Fold change /veh FAM26E (11764081_at) / RFU ISYNA1 (11749810_s_at) / Fold change /veh ISYNA1 (11749810_s_at) / RFU ACY1 (11761880_at) / Fold change /veh ACY1 (11761880_at) / RFU 11764098_at / Fold change /veh 11764098_at / RFU SAMD14 (11745864_x_at) / Fold change /veh SAMD14 (11745864_x_at) / RFU NPB (11741838_a_at) / Fold change /veh NPB (11741838_a_at) / RFU TMPRSS6 (11731388_a_at) / Fold change /veh TMPRSS6 (11731388_a_at) / RFU KRTAP10-2 (11738614_at) / Fold change /veh KRTAP10-2 (11738614_at) / RFU ARHGAP8 /// PRR5-ARHGAP8 (11727945_x_at) / Fold change /veh ARHGAP8 /// PRR5-ARHGAP8 (11727945_x_at) / RFU KRTAP5-7 /// NADSYN1 (11734609_at) / Fold change /veh KRTAP5-7 /// NADSYN1 (11734609_at) / RFU RASL12 (11751679_a_at) / Fold change /veh RASL12 (11751679_a_at) / RFU CDKN2B (11736163_a_at) / Fold change /veh CDKN2B (11736163_a_at) / RFU PRF1 (11729649_at) / Fold change /veh PRF1 (11729649_at) / RFU, ZNF638 /// ZNF638-IT1 / Fold change vs veh, ZNF638 /// ZNF638-IT1 / RFU, PANK3 / Fold change vs veh, PANK3 / RFU, SH3YL1 / Fold change vs veh, SH3YL1 / RFU, ZEB2 / Fold change vs veh, ZEB2 / RFU, NRIP1 / Fold change vs veh, NRIP1 / RFU, PTTG1IP / Fold change vs veh, PTTG1IP / RFU, CAPN2 / Fold change vs veh, CAPN2 / RFU, MED14 / Fold change vs veh, MED14 / RFU, SNORA58 / Fold change vs veh, SNORA58 / RFU, C1orf63 / Fold change vs veh, C1orf63 / RFU, LRRFIP1 / Fold change vs veh, LRRFIP1 / RFU, NDUFAF7 / Fold change vs veh, NDUFAF7 / RFU, SLC12A2 / Fold change vs veh, SLC12A2 / RFU, IBTK / Fold change vs veh, IBTK / RFU, ESF1 / Fold change vs veh, ESF1 / Fold change vs veh, TMEM50B / RFU, TAOK1 / Fold change vs veh, TAOK1 / RFU, ACBD3 / Fold change vs veh, ACBD3 / RFU, TMA16 / Fold change vs veh, TMA16 / RFU, RWDD3 / Fold change vs veh, RWDD3 / RFU, BCAT1 / Fold change vs veh, BCAT1 / RFU, EDEM3 / Fold change vs veh, EDEM3 / RFU, TMEM33 / Fold change vs veh, TMEM33 / RFU, WDR75 / Fold change vs veh, WDR75 / RFU, AHCTF1 / Fold change vs veh, AHCTF1 / RFU, TFRC / Fold change vs veh, TFRC / RFU, ZDHHC17 / Fold change vs veh, ZDHHC17 / RFU, NOM1 / Fold change vs veh, NOM1 / RFU, ARL8B / Fold change vs veh, ARL8B / RFU, ZBTB11 / Fold change vs veh, ZBTB11 / RFU, TAMM41 / Fold change vs veh, TAMM41 / RFU, KIAA1704 /// LOC100996395 / Fold change vs veh, KIAA1704 /// LOC100996395 / RFU, ING1 / Fold change vs veh, ING1 / RFU, TRMT61B / Fold change vs veh, TRMT61B / RFU, FUBP3 / Fold change vs veh, FUBP3 / RFU, TP53 / Fold change vs veh, TP53 / RFU, TNKS2 / Fold change vs veh, TNKS2 / RFU, ZFP14 / Fold change vs veh, ZFP14 / RFU, ACTR2 / Fold change vs veh, ACTR2 / RFU, PPP3R1 / Fold change vs veh, PPP3R1 / RFU, PIK3R1 / Fold change vs veh, PIK3R1 / RFU, HNRNPA1 / Fold change vs veh, HNRNPA1 / RFU, RNF170 / Fold change vs veh, RNF170 / RFU, ZNF28 / Fold change vs veh, ZNF28 / RFU, RNGTT / Fold change vs veh, RNGTT / RFU, OGT / Fold change vs veh, OGT / RFU, BRD1 / Fold change vs veh, BRD1 / RFU, MARS / Fold change vs veh, MARS / RFU, ZNF655 / Fold change vs veh, ZNF655 / RFU, FAHD1 / Fold change vs veh, FAHD1 / RFU, BDP1 / Fold change vs veh, BDP1 / RFU, LRRCC1 / Fold change vs veh, LRRCC1 / RFU, ARID1A / Fold change vs veh, ARID1A / RFU, ZNF146 / Fold change vs veh, ZNF146 / RFU, ZNF330 / Fold change vs veh, ZNF330 / RFU, GPN3 / Fold change vs veh, GPN3 / RFU, C9orf123 / Fold change vs veh, C9orf123 / RFU, N4BP2L2 / Fold change vs veh, N4BP2L2 / RFU, ARFIP1 / Fold change vs veh, ARFIP1 / RFU, FAM179B / Fold change vs veh, FAM179B / RFU, BCL10 / Fold change vs veh, BCL10 / RFU, UHRF1BP1L / Fold change vs veh, UHRF1BP1L / RFU, BET1 / Fold change vs veh, BET1 / RFU, CNOT2 / Fold change vs veh, CNOT2 / RFU, ZNF268 / Fold change vs veh, ZNF268 / Fold change vs veh, ZNF507 / RFU, DGCR2 / Fold change vs veh, DGCR2 / RFU, WDSUB1 / Fold change vs veh, WDSUB1 / Fold change vs veh, HSP90B1 /// MIR3652 / RFU, ADSS / Fold change vs veh, ADSS / RFU, GK / Fold change vs veh, GK / RFU, ZNF148 / Fold change vs veh, ZNF148 / RFU, TAF9 / Fold change vs veh, TAF9 / RFU, SLC1A5 / Fold change vs veh, SLC1A5 / RFU, SLMO2 / Fold change vs veh, SLMO2 / RFU, ABCC4 / Fold change vs veh, ABCC4 / RFU, LOC101060439 /// RAP1B / Fold change vs veh, LOC101060439 /// RAP1B / RFU, RFX7 / Fold change vs veh, RFX7 / RFU, GTPBP10 / Fold change vs veh, GTPBP10 / RFU, CNEP1R1 / Fold change vs veh, CNEP1R1 / RFU, BIVM-ERCC5 /// ERCC5 / Fold change vs veh, BIVM-ERCC5 /// ERCC5 / RFU, ILF3 / Fold change vs veh, ILF3 / RFU 11762660_at / Fold change /veh 11762660_at / RFU VCAN (11757783_s_at) / Fold change /veh VCAN (11757783_s_at) / RFU DDX43 (11728927_at) / Fold change /veh DDX43 (11728927_at) / RFU KRT8 (11758188_x_at) / Fold change /veh KRT8 (11758188_x_at) / RFU NKD1 (11759106_at) / Fold change /veh NKD1 (11759106_at) / RFU SRD5A1 (11742802_a_at) / Fold change /veh SRD5A1 (11742802_a_at) / RFU TPSAB1 /// TPSB2 (11721975_s_at) / Fold change /veh TPSAB1 /// TPSB2 (11721975_s_at) / RFU GSTM3 (11746129_a_at) / Fold change /veh GSTM3 (11746129_a_at) / RFU IL23R (11737362_x_at) / Fold change /veh IL23R (11737362_x_at) / RFU TMEM51 (11727254_a_at) / Fold change /veh TMEM51 (11727254_a_at) / RFU PIWIL2 (11732686_x_at) / Fold change /veh PIWIL2 (11732686_x_at) / RFU ORM1 (11744905_x_at) / Fold change /veh ORM1 (11744905_x_at) / RFU CCDC152 (11743942_at) / Fold change /veh CCDC152 (11743942_at) / RFU ECM1 (11717891_a_at) / Fold change /veh ECM1 (11717891_a_at) / RFU IL23R (11748794_a_at) / Fold change /veh IL23R (11748794_a_at) / RFU TNFAIP8L3 (11732012_x_at) / Fold change /veh TNFAIP8L3 (11732012_x_at) / RFU MBOAT4 (11741988_at) / Fold change /veh MBOAT4 (11741988_at) / RFU 11764193_at / Fold change /veh 11764193_at / RFU TMEM53 (11763286_at) / Fold change /veh TMEM53 (11763286_at) / RFU MAGEB2 (11727129_at) / Fold change /veh MAGEB2 (11727129_at) / RFU TMEM200A (11744735_a_at) / Fold change /veh TMEM200A (11744735_a_at) / RFU CCDC152 (11751479_a_at) / Fold change /veh CCDC152 (11751479_a_at) / RFU FAM211A (11726209_a_at) / Fold change /veh FAM211A (11726209_a_at) / RFU RGS16 (11746705_a_at) / Fold change /veh RGS16 (11746705_a_at) / RFU VCAN (11755009_s_at) / Fold change /veh VCAN (11755009_s_at) / RFU RHOB (11743442_s_at) / Fold change /veh RHOB (11743442_s_at) / RFU RGS16 (11720943_a_at) / Fold change /veh RGS16 (11720943_a_at) / RFU RGS16 (11720944_at) / Fold change /veh RGS16 (11720944_at) / RFU, VPS4B / Fold change vs veh, VPS4B / RFU, CREB1 / Fold change vs veh, CREB1 / RFU, DNAJC13 / Fold change vs veh, DNAJC13 / RFU, GNAQ / Fold change vs veh, GNAQ / RFU, CDK5R1 / Fold change vs veh, CDK5R1 / RFU, ZRANB3 / Fold change vs veh, ZRANB3 / RFU, CUL4A / Fold change vs veh, CUL4A / RFU, CCNY / Fold change vs veh, CCNY / RFU, UFL1 / Fold change vs veh, UFL1 / RFU, COG3 / Fold change vs veh, COG3 / RFU, DIAPH2 / Fold change vs veh, DIAPH2 / RFU, SKA2 / Fold change vs veh, SKA2 / RFU, AFF3 / Fold change vs veh, AFF3 / RFU, LMF1 / Fold change vs veh, LMF1 / RFU, IPO11 / Fold change vs veh, IPO11 / RFU, DFFB / Fold change vs veh, DFFB / RFU, FOXP1 / Fold change vs veh, FOXP1 / RFU, CARD8 / Fold change vs veh, CARD8 / RFU, STRN3 / Fold change vs veh, STRN3 / RFU, ADK / Fold change vs veh, ADK / RFU, RASSF2 / Fold change vs veh, RASSF2 / RFU, WIPF1 / Fold change vs veh, WIPF1 / RFU, LARP1B / Fold change vs veh, LARP1B / RFU, RASA1 / Fold change vs veh, RASA1 / RFU, RB1 / Fold change vs veh, RB1 / RFU, PPFIA1 / Fold change vs veh, PPFIA1 / RFU, MAT2A / Fold change vs veh, MAT2A / RFU, CCT5 / Fold change vs veh, CCT5 / RFU, WDR92 / Fold change vs veh, WDR92 / RFU, CUX1 / Fold change vs veh, CUX1 / RFU, TTC7A / Fold change vs veh, TTC7A / RFU, TMEM135 / Fold change vs veh, TMEM135 / RFU, DEPTOR / Fold change vs veh, DEPTOR / RFU, CPM / Fold change vs veh, CPM / RFU, DNAJB6 / Fold change vs veh, DNAJB6 / RFU, CACNA2D3 / Fold change vs veh, CACNA2D3 / RFU, DTX4 / Fold change vs veh, DTX4 / RFU, TFCP2 / Fold change vs veh, TFCP2 / RFU, GMCL1 /// GMCL1P1 / Fold change vs veh, GMCL1 /// GMCL1P1 / RFU, AEBP2 / Fold change vs veh, AEBP2 / RFU, SNHG1 /// SNORD22 /// SNORD25 /// SNORD26 /// SNORD27 /// SNORD28 /// SNORD29 /// SNORD31 / Fold change vs veh, SNHG1 /// SNORD22 /// SNORD25 /// SNORD26 /// SNORD27 /// SNORD28 /// SNORD29 /// SNORD31 / Fold change (Aza/veh), C12orf56 (ProbeSet 11735607_a_at) / Fold change (ACY-1035/veh), C12orf56 (ProbeSet 11735607_a_at) / Fold change (Aza/veh), FGFR1OP (ProbeSet 11751329_s_at) / Fold change (ACY-1035/veh), FGFR1OP (ProbeSet 11751329_s_at) / Fold change (Aza/veh), VPS36 (ProbeSet 11739960_a_at) / Fold change (ACY-1035/veh), VPS36 (ProbeSet 11739960_a_at) / RFU SYPL1 (11715823_x_at) / Fold change /veh SYPL1 (11715823_x_at) / RFU IGFBP7 (11715501_s_at) / Fold change /veh IGFBP7 (11715501_s_at) / RFU REEP3 (11722064_at) / Fold change /veh REEP3 (11722064_at) / RFU IGLL1 (11728026_x_at) / Fold change /veh IGLL1 (11728026_x_at): dose or concentration left out as unconfirmed. The note with it: MV-4-11 cells, 48 hours.

With `Nc1ncn([C@@H]2O[C@H](CO)[C@@H](O)[C@H]2O)c(=O)n1` [azacitidine], the “RFU SYPL1 (11715823_x_at)” value was found to be 860.69 RFU.
